Experiments:
Assay type in all cases: cell-based
[1] = target: T1, OATP2B1 (Homo sapiens, UniProt O94956); test: OATP2B1 inhibition assay, 3H-E3S uptake, MDCKII cells
T1 construct: expressed in transfected cells; host or cells: MDCKII cells
T1 sequence (O94956 1-709): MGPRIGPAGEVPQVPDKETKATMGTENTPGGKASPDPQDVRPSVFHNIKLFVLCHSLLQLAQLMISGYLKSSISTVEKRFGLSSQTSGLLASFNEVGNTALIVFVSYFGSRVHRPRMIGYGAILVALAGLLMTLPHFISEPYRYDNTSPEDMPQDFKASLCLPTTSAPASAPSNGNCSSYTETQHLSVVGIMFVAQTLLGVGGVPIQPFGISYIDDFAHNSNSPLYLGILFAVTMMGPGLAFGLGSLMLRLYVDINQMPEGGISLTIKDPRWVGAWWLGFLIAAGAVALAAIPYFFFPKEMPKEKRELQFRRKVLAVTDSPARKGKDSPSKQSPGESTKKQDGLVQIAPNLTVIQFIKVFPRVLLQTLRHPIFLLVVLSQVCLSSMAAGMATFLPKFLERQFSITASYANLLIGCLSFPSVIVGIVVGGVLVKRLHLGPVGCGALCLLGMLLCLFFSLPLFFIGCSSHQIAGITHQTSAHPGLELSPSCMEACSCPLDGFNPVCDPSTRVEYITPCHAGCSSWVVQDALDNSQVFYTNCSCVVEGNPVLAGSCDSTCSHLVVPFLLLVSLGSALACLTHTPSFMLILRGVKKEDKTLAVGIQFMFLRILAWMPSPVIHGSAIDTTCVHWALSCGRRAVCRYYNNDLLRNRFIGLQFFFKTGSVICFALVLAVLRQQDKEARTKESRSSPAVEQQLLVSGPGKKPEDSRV
Protocol: MDCKII-Mock and OATP2B1-transfected cells (1×10^5 cells each) were seeded 24 hr prior to assay. Pre-rinsed cells were incubated for 2 minutes with 0.2 μM ^3H-E3S in HK buffer in the presence of various concentrations of test compound or positive control fluvastatin. After the experiment cells were rinsed with Krebs-Henseleit buffer and lysed with 0.1 M NaOH. The amount of substrate inside the cells was determined by liquid scintillation reader.
(§1) Percent inhibition was calculated according to the following equation: % inhibition=[1−{[OATP]i−[WT]ni}/{[OATP]ni−[WT]ni}]*100 where: [OATP]i represent the substrate accumulation in the presence of test compound for either OATP1B1, OATP1B3, or OATP2B1 cells; [OATP]ni represents the substrate accumulation in the absence of test compound for either OATP1B1, OATP1B3, or OATP2B1 cells, respectively; and [WT]ni represents the substrate accumulation in the absence of test compound for wild type cells or Mock cells, respectively. IC50 Determination in Transporter Assays
(§2) IC50 was determined according to the procedures described in Example 5. […] Results are reported as NIO (no interaction observed).

[2] = target: T2, OATP1B3 (Homo sapiens, UniProt Q9NPD5); test: OATP1B3 inhibition assay using 3H-E217βG as probe substrate, HEK293FT cells; parameters: expressed in transfected cells
T2 sequence (Q9NPD5 1-702): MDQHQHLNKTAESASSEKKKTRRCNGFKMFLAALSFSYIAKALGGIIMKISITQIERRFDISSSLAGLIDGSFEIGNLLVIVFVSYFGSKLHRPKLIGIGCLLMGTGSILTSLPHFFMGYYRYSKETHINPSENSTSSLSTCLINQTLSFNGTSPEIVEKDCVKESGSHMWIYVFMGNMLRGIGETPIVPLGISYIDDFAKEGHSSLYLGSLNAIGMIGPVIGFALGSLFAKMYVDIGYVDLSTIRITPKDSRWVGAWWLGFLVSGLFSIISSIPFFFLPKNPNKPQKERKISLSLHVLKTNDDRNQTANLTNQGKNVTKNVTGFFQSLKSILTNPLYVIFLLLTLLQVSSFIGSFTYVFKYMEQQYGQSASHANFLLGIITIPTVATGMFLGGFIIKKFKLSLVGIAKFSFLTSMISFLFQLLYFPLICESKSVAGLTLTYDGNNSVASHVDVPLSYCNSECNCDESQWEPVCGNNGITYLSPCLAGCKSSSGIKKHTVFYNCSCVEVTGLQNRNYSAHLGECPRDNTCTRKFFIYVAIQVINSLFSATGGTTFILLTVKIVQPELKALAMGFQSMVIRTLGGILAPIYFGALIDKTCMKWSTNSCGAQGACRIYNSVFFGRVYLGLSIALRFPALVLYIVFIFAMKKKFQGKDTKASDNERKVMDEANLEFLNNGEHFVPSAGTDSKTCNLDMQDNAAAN
Protocol: HEK293FT-Mock and OATP-transfected cells (1×10^5 cells each) were seeded 24 hr prior to assay. Pre-rinsed ells were incubated for 3 minutes with 1 μM ^3H-E217βG in HK buffer in the presence of various concentrations of test compound or positive control rifampicin. After the experiment cells were rinsed with Krebs-Henseleit buffer and lysed with 0.1 M NaOH. The amount of substrate inside the cells was determined by liquid scintillation reader.
as §1, §2

[3] = target: T2, OATP1B3; test: OATP1B3 inhibition assay using Fluo-3 as probe substrate, CHO cells; parameters: expressed in transfected cells; host or cells: CHO cells; settings: for Maximum inhibition at highest test conc. (% of control) / inhibition at 1 h, 100 µM: OATP1B3, Fluo-3, at 100 μM; for IC50 (μM): OATP1B3, Fluo-3, NIO = no interaction observed; for inhibition at 1 h, 100 µM: human, CHO cells transfected with human OATP1B3, pH 7.4, probe Fluo-3 (2 μM), read-out: Maximum inhibition at highest test conc. (% of control)
Protocol: Chinese Hamster Ovary (CHO) cells, either wild type or transfected with the genes encoding human OATP1B1 or OATP1B3, were maintained in Dulbecco's Modification of Eagle's Medium (DMEM) containing 1,000 mg/L D-glucose, L-glutamine, 25 mM HEPES buffer, and 110 mg/L sodium pyruvate, 1% Pen/Strep, 10% fetal bovine serum, 0.05 mg/mL L-proline and 0.5 mg/mL of geneticin G-418. Cells were maintained in incubators set at 37° C., 90% humidity and 5% CO2. OATP1B1 or OATP1B3 overexpressing CHO cells were seeded in BioCoat Poly-D-Lysine coated 96 well black cell culture plates with clear bottoms at a density of 1×10^5 cells/well. Sodium butyrate (10 mM) was added to the OATP1B1 and OATP1B3 cells to increase the protein expression level, and the cells were grown to confluence overnight. The assay buffer contained 142 mM NaCl, 5 mM KCl, 1 mM KH2PO4, 1.2 mM MgSO4, 1.5 mM CaCl2, 5 mM Glucose and 12.5 mM HEPES (pH 7.4). After removal of the media and before adding test compounds, the cells were washed twice with 37° C. assay buffer followed by a 0.5 h pre-incubation with assay buffer. Test compounds were serially diluted in DMSO at 250-fold of final test concentrations to create the compound spiking solutions. Compounds were then spiked into assay buffer containing 2 μM Fluo-3 and incubated with cells for 1 h. Following removal of assay buffer containing Fluo-3 and test compound, cells were washed 3 times with 200 μl of ice cold assay buffer and then lysed at room temperature for 15 minutes in a lysis buffer containing […] in a 1 mM CaCl2 solution. Substrate accumulations were determined for Fluo-3 fluorescence at an excitation of 485 nm and emission of 530 nm.
as §1, §2

| Structure (SMILES) | IC50 ([1]; NIO = no interaction observed) | inhibition at 2 min, 100 µM ([1]; human, MDCKII cells transfected with OATP2B1, probe 3H-E3S (0.2 μM), at 100 μM, read-out: Maximum inhibition at highest test conc. (% of control)) | IC50 ([2]; NIO = no interaction observed) | inhibition at 3 min, 100 µM ([2]; human, HEK293FT cells transfected with OATP1B3, probe 3H-E217βG (1 μM), at 100 μM, read-out: Maximum inhibition at highest test conc. (% of control)) | Maximum inhibition at highest test conc. (% of control) [3] | IC50 (μM) [3] | inhibition at 1 h, 100 µM [3] | Maximum inhibition at highest test conc. (% of control) ([3]; 100 µM) | IC50 (μM) ([1]; NIO = no interaction observed) | IC50 (μM) ([2]; NIO = no interaction observed) |
| --- | --- | --- | --- | --- | --- | --- | --- | --- | --- | --- |
| O=C(NCc1c(F)cc(F)c(OS(=O)(=O)O)c1F)c1cn2c(c(O)c1=O)C(=O)N1C(C2)O[C@@H]2CC[C@H]1C2 (stereo partly drawn) [Metabolite M20] | > 100 µM | 26% | > 100 µM | 49% | minimal to no inhibition | NIO | 18% | – | – | – |
| O=C(NCc1c(F)cc(F)c(O)c1F)c1cn2c(c(O)c1=O)C(=O)N1[C@H]3CC[C@H](C3)O[C@@H]1C2 [Metabolite M23] | – | – | – | – | minimal to no inhibition | NIO | 20% | – | – | – |
| O=C(NCc1c(F)cc(F)cc1F)c1cn2c(c(O[C@@H]3O[C@H](C(=O)O)[C@@H](O)[C@H](O)[C@H]3O)c1=O)C(=O)N1[C@H]3CC[C@H](C3)O[C@@H]1C2 [Metabolite M15] | – | – | – | – | – | NIO | 0% | minimal to no inhibition | – | – |
| O=C(NCc1c(F)cc(F)cc1F)c1cn2c(c(O)c1=O)C(=O)N1[C@H]3CC[C@H](C3)O[C@@H]1C2 [BIC, bictegravir, reference compound] | – | – | – | – | – | – | – | – | NIO | NIO |

From US11253524B2 (Gilead Sciences, Inc., priority 2018, dated 2022)
